Data: patent publication US4387102A, “4-(N-(3',4'-Methylenedioxybenzylidene)-aminomethyl)cyclohex ane-1-carboxylic acid and derivatives thereof and pharmaceutical composition thereof” (Kureha Kagaku Kogyo Kabushiki Kaisha, priority 1980, dated 1983)

How the values were obtained:
[1] = system: polymorphonuclear leukocytes; test: Inhibition of migration of polymorphonuclear leukocytes to the inflammatory region (Granuloma-CMC-Pouch method); type: in vivo, rat; conditions: single oral dose, male Donryu rats, present compound 100 mg/kg, indomethacin 10 mg/kg (footnote)
Protocol: Tests for inhibition of migration of polymorphonuclear leukocytes to the inflammatory region due to sodium 4-[N-(3',4'-methylenedioxybenzylidene)aminomethyl]cyclohexane-1-carboxylate were carried out following the method of Granuloma-CMC-Pouch (refer to Ishikawa et al. J. Pharmaceut. Soc. Jap., Vol. 88, page 1472, 1968).
Namely, after cutting the hair on the back of male rats (Donryu, body weight: 150 g), 5 ml of air was injected subcutaneously into the hair-cut region and further, 5 ml of aqueous 2% (W/V) solution of sodium carboxymethyl cellulose (CMC) at 37° C. was injected.
Specimens of the liquid (0.5 ml, each) effused into the pouch were collected at 3, 6 and 24 hours after 2% CMC solution were injected respectively and then the number of polymorphonuclear leukocytes in the specimen was counted after staining to determine the rate of inhibition of migration of the polymorpholeukocyte as compared to the number of the polymorpholeukocytes in the specimen collected from control animal to which the aqueous CMC solution was injected after air injection.
In this test, sodium 4-[N-(3',4'-methylenedioxybenzylidene)aminomethyl]cyclohexane-1-carboxylate was orally administered as a solution in aqueous physiological saline solution at a dose of 100 mg/kg at the time of injecting the solution of CMC, and as a control, […] at the time of injecting the solution of CMC.

[2] = system: female JCL-ICR mice; test: Acute oral toxicity test; type: in vivo, mouse; conditions: 3000 mg/kg, female JCL-ICR mice of five weeks
Protocol: (5-2) Acute oral toxicity test were carried out by orally administering aqueous solutions of sodium 4-[N-(3',4'-methylenedioxybenzylidene)aminomethyl]cyclohexane-1-carboxylate to groups of female JCL-ICR mice of five weeks after birth.

[3] = system: rabbit's platelets; test: Inhibition of blood platelet aggregation induced by sodium arachidonate (platelet aggregation tracer PAT 4A); type: cell-based; conditions: 400 micromols sodium arachidonate
Protocol: (5-1) Test for inhibition of platelet aggregation was carried out while using rabbit's platelets, an aqueous physiological saline solution of sodium 4-[N-([…]-methylenedioxybenzylidene)aminomethyl]cyclohexane-1-carboxylate and 400 micromols of sodium arachidonate as the aggregation agent in a platelet aggregation tracer PAT 4A (made by Niko Bioscience Company, Japan) as the testing apparatus.

[4] = 3 hours of injection of CMC, control 3.5 × 10^3
[5] = 6 hours of injection of CMC, control 5.9 × 10^3
[6] = 24 hours of injection of CMC, control 14.9 × 10^3

Row | Compound | R.I. (inhibitory rate of migration of polymorphonuclear leukocytes into the pouch as compared to control) ([1]; 3 hours of injection of CMC) | Number of polymorphonuclear leukocytes [1, 4] | R.I. (inhibitory rate of migration of polymorphonuclear leukocytes into the pouch as compared to control) ([1]; 6 hours of injection of CMC) | Number of polymorphonuclear leukocytes [1, 5] | R.I. (inhibitory rate of migration of polymorphonuclear leukocytes into the pouch as compared to control) ([1]; 24 hours of injection of CMC) | Number of polymorphonuclear leukocytes [1, 6] | abnormality in acute oral toxicity test [2] | percent of inhibition of the aggregation of the platelets by sodium arachidonate ([3]; 500 micromols compound) | percent of inhibition of the aggregation of the platelets by sodium arachidonate ([3]; 1000 micromols compound) | percent of inhibition of the aggregation of the platelets by sodium arachidonate ([3]; 1500 micromols compound)
1 | COc1ccc2c(c1)c(CC(=O)O)c(C)n2C(=O)c1ccc(Cl)cc1 [Indomethacin, indomethacin, reference compound] | 34% | 2.3 × 10^3 Number/mm^3 | 31% | 4.1 × 10^3 Number/mm^3 | 28% | 10.8 × 10^3 Number/mm^3 | – | – | – | –
2 | O=C([O-])C1CCC(CN=Cc2ccc3c(c2)OCO3)CC1.[Na+] (stereo not shown) [Present compound, sodium 4-[N-(3',4'-methylenedioxybenzylidene)aminomethyl]cyclohexane-1-carboxylate] | 46% | 1.9 × 10^3 Number/mm^3 | 54% | 2.7 × 10^3 Number/mm^3 | 32% | 10.1 × 10^3 Number/mm^3 | no abnormality was found | 30% | 75% | 100%
